Key:
[1] = system: NSCLC, pancreatic and colon cancer cell lines; test: Cell viability, M13-C06 and PI-103 alone or combined; type: cell-based; settings: PI-103, colon cancer cell lines
Procedure: Cells were plated at 5000 cells/well in 96-well tissue culture plates in cell culture medium containing 10% fetal bovine serum, then treated with M13-C06 or PI-103 (American Custom Chemicals Corp. cat# 371935-74-9) as single agents or in combination at 1:3 serial dilutions with a starting concentration of 200 nM and 10 microM for M13-C06 and PI-103 respectively. The cell viability was determined three or five days later by measuring ATP levels with CELL TITER GLO™ reagent from Promega.

[2] = system: NSCLC, pancreatic and colon cancer cell lines; test: Cell viability, M13-C06 and erlotinib alone or combined; type: cell-based
Procedure: M13-C06 (human IgG4 Pagly anti-IGF-1R antibody) is currently in clinical development for multiple solid tumors. We evaluated the effect of anti-IGF-1R M13-C06 in combination with erlotinib (American Custom Chemicals Corp., cat# 183319-69-9 (San Diego, Calif.)) on the growth (proliferation) of a panel of NSCLC, pancreatic and colon cancer cell lines. Cells were plated at 5000 cells per well in 96-well tissue culture plates in RPMI-1640 (containing 10% fetal bovine serum (FBS, Hyclone cat# Sh30071.03)) and then treated with M13-C06 or erlotinib as single agents or in combination at 1:3 serial dilutions with a starting concentration of 200 nM and 20 microM for M13-C06 and for erlotinib respectively.

[3] = system: AKT and MAPK phosphorylation in NSCLC cell lines; test: Western blot of AKT and MAPK phosphorylation, M13-C06 and erlotinib; type: cell-based; settings: 10 microM erlotinib, 3 hours
Procedure: We set to determine the molecular mechanisms underlying the observed enhanced anti-tumor effect of combining erlotinib and M13-C06 in NSCLC cell lines. AKT and MAPK activation status was evaluated after treatment with erlotinib and M13-C06 as single agents or in combination, since AKT and MAPK are common downstream signaling targets of IGF-1R and EGFR. Tumor cell lines were plated onto 6-well plates at 1.2×10^6 per well, in RPMI+10% FBS media, and allowed to adhere overnight. The following day, media from wells was removed and replaced with 100 nM M13-C06 or IDEC151 (human IgG4 isotype control antibody) in combination with either media (single agent control) or 10 microM erlotinib in media. Assay plates were incubated in a 37° C., 5% C02 humidified incubator for 3 hours, and cellular proteins were extracted in cell lysis buffer (Cell Signaling Technology, cat# 9803 (Danvers, Mass. USA)). Protein concentrations in lysates were measured using a BCA protein assay kit (Pierce, cat# 23227 (Pierce Biotechnology, Inc., Rockford, Ill.)) and equal amount of proteins were run on a NUPAGE 4-12% Tris-Bis gel, and transferred to a nitrocellulose membrane (0.45 μm pore). Phosphorylation was detected by treatment with antibodies specific for phospho-AKT, total AKT, phospho-MAPK, or total MAPK (Cell Signaling technology, cat #9271, 9272, 9101, 9102), followed by treatment with anti-Rabbit-IgG-HRP (Southern Biotech. cat# 4050-05). Blots were developed with Supersignal Western Substrate Kit (Pierce, cat#34095) and the chemiluminescent image was captured on a BioRad Max2 imager. […] In general, the effects of M13-C06 and erlotinib on downstream signaling molecules AKT and MAPK correlate with their effects on cell growth as shown in FIG. 41.

[4] = system: MiaPaCa2 pancreatic carcinoma cells; test: MiaPaCa2 pancreatic carcinoma xenograft; type: in vivo, mouse; settings: gemcitabine alone, 20 mg/kg, Q4D×3
From the text: Female SCID mice were innoculated in the right flank with 2×10^6 MiaPaCa2 pancreatic carcinoma cells in 50% Matrigel (BD Biosciences)/PBS.

[5] = system: NSCLC, pancreatic, colon cancer and sarcoma cell lines; test: Cell viability, M13-C06 and rapamycin alone or combined; type: cell-based
Procedure: For cell growth assays, cells were plated at 5000 cells per well in 96-well tissue culture plates in RPMI-1640 containing 10% fetal bovine serum (for most cell lines) or McCoy's 5A plus 15% FBS (for sarcoma cell lines). Cells were treated with M13-C06 and rapamycin (American Custom Chemicals Corp. cat# 53123-88-9) as a single agent or in combination at 1:3 serial dilutions with a starting concentration of 200 nM for M13-C06 and 100 nM or 1 microM for rapamycin for three or five days. Cell viability was determined by measuring ATP levels with CELL TITER GLO™ reagent.

[6] = system: AKT and S6K signaling in sarcoma and lung tumor cell lines; test: Western blot of AKT and S6K phosphorylation, M13-C06 and rapamycin; type: cell-based; settings: 100 nM rapamycin, 3 hours
Procedure: It has been reported that rapamycin inhibition of mTOR induces AKT activation through S6K (S6 kinase) and IGF-1R/IRS-1 (Insulin Receptor Substrate-1) dependent feedback loop (O'Reilly, et al., Cancer Research, vol. 66, p. 1500-1508 (2006)). We therefore examined the effect of M13-C06 and rapamycin on AKT and S6K signaling in selected sarcoma and lung tumor cell lines in which M13-C06 enhanced the anti-tumor activity of rapamycin. Cells were plated onto 12 well plates at 6×10^5 per well, in McCoy's 5A medium plus 15% FBS for sarcoma and RPMI-1640 plus 10% FBS for NSCLC cell lines, and allowed to adhere overnight. The following day, media from wells was removed and replaced with 100 nM M13-C06 or IDEC151 in combination with either media (single agent control) or 100 nM rapamycin in media. Assay plates were incubated in a 37° C., 5% CO2 humidified incubator for 3 hours, cells were lysed in Cell Signaling Lysis Buffer (Cell Signal Technologies, #9803), and the lysates were normalized by protein concentration and run on a NUPAGE 4-12% Tris-Bis gel, then transferred to a nitrocellulose membrane. Phosphorylation status of AKT and S6K was detected by treatment with antibodies specific for phospho-AKT, total AKT phospho-S6K, or total S6K (Cell Signaling technology, cat# 2215, 2217), then by treatment with anti-Rabbit-IgG-HRP (Cell Signaling Biotechnology, cat# 7071). […]

`Oc1cccc(-c2nc(N3CCOCC3)c3oc4ncccc4c3n2)c1` [PI-103, 3-[4-(4-morpholinyl)pyrido[3′,2′:4,5]furo[3,2-d]pyrimidin-2-yl]-phenol, reference compound] was tested, and the cell growth [1] was “None of the colon cancer cell lines appeared to be sensitive to PI-103 inhibition”.
In the case of `C#Cc1cccc(Nc2ncnc3cc(OCCOC)c(OCCOC)cc23)c1` [erlotinib, N-(3-ethynylphenyl)-6,7-bis(2-methoxyethoxy)quinazolin-4-amine, reference compound], the cell growth ([2]; erlotinib single agent, 7 NSCLC cell lines, five days) is reported as “substantially inhibited the growth of only H322M and H1650 cell lines”, the cell growth ([2]; erlotinib, 5 colon cancer cell lines) is reported as “none of 5 colon cancer cell lines showed substantial growth inhibition” and the “phosphorylation of MAPK” value ([3]; A549 cells) is reported as “partial inhibition of MAPK phosphorylation”. The “phosphorylation of MAPK” value ([3]; H322M cells) was “completely abolished detectable phosphorylation of MAPK” and the “phosphorylation of MAPK” value ([3]; H1299 and NCI-H23 cells) was “little effect”.
With `Nc1ccn([C@@H]2O[C@H](CO)[C@@H](O)C2(F)F)c(=O)n1` [gemcitabine] the tumor growth [4] was “inhibited tumor growth”.
For “(16Z,24Z,26Z,28Z)-1,18-dihydroxy-12-[1-(4-hydroxy-3-methoxycyclohexyl)propan-2-yl]-19-methoxy-15,17,21,23,29,35-hexamethyl-30-(5-methylthiophen-2-yl)-11,36-dioxa-4-azatricyclo[30.3.1.0̂ {4,9}]hexatriaconta-16,24,26,28-tetraene-2,3,10,14,20-pentone [rapamycin, reference compound]”, the cell growth ([5]; rapamycin, colon cancer cell lines) was “most colon cancer cell line tested did not respond well to rapamycin”, the cell growth ([5]; single agent, SJSA-1 cells) was “did not respond” and the “phosphorylation of S6K” value [6] was “inhibited phosphorylation of S6K”. For the same compound, the AKT phosphorylation ([6]; all cell lines tested) was “induced AKT phosphorylation in all cell lines tested”.
